Assay results: patent US10188661B2, “Topical dosage regimen” (Topokine Therapeutics, Inc., priority 2014, dated 2019)
Like-named read-outs stand apart in the source and are kept apart here.

Assays:
[1] = 91-day once-daily latanoprost ointment, plasma PK after last dose in minipigs; type: in vivo; conditions: both sexes, topical or ocular, 0.5 % w/w; minipig, topical (percutaneous) latanoprost; first-order fit of 24, 48, 72 h plasma values; read-out: terminal elimination half-life
Procedure: A pharmacokinetic (PK) experiment was conducted on male and female minipigs (n=6 per sex). Ointment comprising latanoprost 0.5% w/w in a vehicle comprising petroleum jelly and isopropyl myristate was applied once daily for 91 days to skin over 10% of body surface area. After the last topical application, plasma PK was assessed by sampling all animals through 24 hours, and in 2 animals per sex over for an additional 48 hours.
(See Sjoquist B et al., The pharmacokinetics of a new antiglaucoma drug, latanoprost, in the rabbit, Drug Metabol […] 1998; 26:745-754; and Sjoquist B and Stjernschantz J, Ocular and systemic pharmacokinetics of latanoprost in humans, Surv Ophthalmol 2002; 47:S6-S12).

[2] = cited from earlier work
subcutaneous fat = assay: 42-day once-daily topical latanoprost trial in minipigs: reduction of subcutaneous fat (microscopy, ImageJ); type: in vivo; conditions: minipig, 42 days
Procedure: A randomized, placebo-controlled trial of topical latanoprost was conducted on male and female minipigs. Animals were randomized to no treatment, placebo (vehicle only), latanoprost 0.16%, or latanoprost 0.8% in an emulsion consisting essentially of water, poloxamer, lecithin, and isopropyl palmitate. The treatment was applied once daily to a 400 cm^2 area on the dorsum, with a semi-occlusive dressing. Treatment continued for 42 days.
Animals received a full panel of local and systemic safety assessments over the course of the study. Plasma toxicokinetics (TK) were assessed at various timepoints. After 42 days of treatment, animals were sacrificed. Samples of skin and subcutaneous fat were dissected from the treatment area in a controlled fashion and submitted for microscopic examination by a veterinary pathologist who was not informed of the compound tested or its therapeutic purpose.
Reduction of subcutaneous fat thickness was quantified using ImageJ software. In the high-dose group the mean reduction was 2.2 cubic centimeters of fat per 100 cm^2 of treated skin.

excess submental fat = assay: Randomized, double-blind, placebo-controlled trial of topical latanoprost on the submental area; type: in vivo, human; conditions: adults, submental skin 50 cm^2, applied at bedtime, washed after 8-10 hours, 42 days
Procedure: A randomized, double-blind, placebo-controlled trial of topical latanoprost applied to the submental area was conducted with adult men and women with excess submental fat. In one cohort, participants were randomized to receive latanoprost in an ethanol-based composition, or a matching placebo composition. In another cohort, participants were randomized to receive latanoprost in a petroleum jelly-based composition, or a matching placebo composition. The composition was applied at bedtime to a controlled 50 cm^2 area of submental skin. Participants were instructed to wash the 50 cm^2 area after 8-10 hours, so as to remove the composition. Treatment continued for 42 days.

[3] = system: lower lid steatoblepharon; assay: Randomized, double-masked, placebo-controlled trial of latanoprost ointment on lower eyelids (steatoblepharon); type: in vivo, human; conditions: adults, lower eyelids once nightly, washed after 8-10 hours, 10 weeks
Procedure: A randomized, double-masked, placebo-controlled trial of latanoprost ointment applied to lower eyelids was conducted with adult men and women with lower lid steatoblepharon, i.e., eye bags. Participants received a kit comprising a tube of latanoprost ointment and instructions to apply the topical composition to the lower eyelids once nightly at bedtime. Participants were instructed to wash the lower eyelids 8-10 hours after ointment application, so as to remove the ointment or residue thereof. Treatment continued for 10 weeks.

[4] = humans; cited from earlier work

half-life [1] [min]	SMILES	half-life ([2]; after intravenous administration) [min]	half-life ([2]; after ocular administration) [min]	half-life ([2]; latanoprost administered intravenously or ophthalmically) [min]	subcutaneous fat on microscopic examination (subcutaneous fat; 0.16% and 0.8% once daily)	mean reduction of subcutaneous fat (subcutaneous fat; high-dose group)	tolerability (excess submental fat)	tolerability [3]	half-life in plasma [4]
1080 to 1440	O=C(O)CCC/C=C\C[C@@H]1[C@@H](CC[C@@H](O)CCc2ccccc2)[C@H](O)C[C@@H]1O [latanoprost free acid]	9 to 17	17 to 85	9 to 85					
	CC(C)OC(=O)CCC/C=C\C[C@@H]1[C@@H](CC[C@@H](O)CCc2ccccc2)[C@H](O)C[C@@H]1O [latanoprost]				Dose-dependent depletion of subcutaneous fat	2.2 cubic centimeters of fat per 100 cm^2 of treated skin	well tolerated	well tolerated	about 17 minutes
